The text below walks through data of patent US5196513A, “Synthetic peptides derived from the beta-subunit of human thyroid stimulating hormone” (Mayo Foundation for Medical Education and Research, priority 1991, dated 1993).

SMILES strings stand for the structures. Residues, ends and D or L forms follow the SMILES beside them.

The target in experiment [1] is T1, porcine TSH receptor (porcine thyroid membranes) (Sus scrofa, UniProt Q8SPP9).
T1 construct: Frozen porcine thyroid glands were purchased; tissue Pel-Freez Biologicals; host or cells: porcine thyroid glands, crude membrane preparation
T1 sequence (Q8SPP9 22-764): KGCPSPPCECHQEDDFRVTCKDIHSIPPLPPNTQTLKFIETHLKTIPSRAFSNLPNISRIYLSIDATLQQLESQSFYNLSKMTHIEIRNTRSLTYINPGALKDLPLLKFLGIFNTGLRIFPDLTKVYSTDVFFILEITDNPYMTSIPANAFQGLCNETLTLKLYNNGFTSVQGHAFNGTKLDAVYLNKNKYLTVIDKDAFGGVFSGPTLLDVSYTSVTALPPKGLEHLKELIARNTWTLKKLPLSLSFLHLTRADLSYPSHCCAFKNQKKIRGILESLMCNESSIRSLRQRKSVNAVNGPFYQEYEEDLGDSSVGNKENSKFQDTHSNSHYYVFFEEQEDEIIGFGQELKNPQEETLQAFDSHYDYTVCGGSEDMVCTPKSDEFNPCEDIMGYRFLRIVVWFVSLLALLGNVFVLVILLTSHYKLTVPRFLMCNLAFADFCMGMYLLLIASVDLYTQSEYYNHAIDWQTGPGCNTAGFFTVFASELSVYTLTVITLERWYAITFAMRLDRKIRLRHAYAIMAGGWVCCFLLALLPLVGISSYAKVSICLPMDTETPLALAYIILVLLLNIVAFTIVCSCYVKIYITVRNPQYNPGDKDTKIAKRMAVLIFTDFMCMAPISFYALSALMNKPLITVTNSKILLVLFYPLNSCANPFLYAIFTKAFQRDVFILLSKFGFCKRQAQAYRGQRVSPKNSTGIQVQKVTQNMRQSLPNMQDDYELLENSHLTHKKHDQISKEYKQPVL
Put plainly: Porcine thyroid membrane TSH radio-receptor assay (inhibition of 125I-bTSH binding). The following applies: concentration inhibiting 125I-bTSH binding to porcine thyroid membrane by 50%; mean ± se of at least 3 assays. From the text: Frozen porcine thyroid glands were purchased (Pel-Freez Biologicals, Rogers, Ak.) and prepared using the same procedures as for the human glands.
(§1) Highly purified bTSH (30 U/mg, supplied by Dr. J. G. Pierce, formerly of UCLA) was radio-iodinated (Na^125 I, Amersham, Chicago) by a lactoperoxidase technique to a specific activity averaging 40-50 μCi/μg as previously described, Takahashi et al., supra, then purified by Sephadex G-100 chromatography.
(§2) The TSH radio-receptor assay (RRA) utilized for the studies has been well described previously; see Takahashi et al., supra and Morris et al., Endocrinology, 123:456-462 (1988), the disclosure of which is incorporated by reference herein. Briefly, for either human or porcine thyroid RRA, the incubation mixture consisted of the following: 10 mg equivalents of wet weight (mg eq) crude thyroid membrane preparation, 0.124 ng [^125 I]iodo-bTSH (approximately 20,000 cpm), 0.2% Triton X-100, and the noted amounts of synthetic peptides or unlabeled bTSH in 0.5 ml 40 mM Tris, 0.1% BSA, pH 7.4. Bound label was separated from free after 2 hrs incubation at 25° C. by addition of a 1 ml 30% polyethylene glycol (PEG, Baker, Phillipsburg, N.J.) 6000 in 1M NaCl and centrifugation. The resulting pellet was counted in a gamma counter. Non-specific binding was determined by addition of a 100 mU/ml crude bTSH (Sigma, St. Louis).

Experiment [2] has as its target T2, TSH receptor on human thyroid membranes (Homo sapiens, UniProt P16473).
T2 construct: Crude membrane preparations were prepared from the frozen tissue; from tissue; host or cells: human thyroid tissue (Graves' disease patients), crude 2000 x g membrane fraction
Put plainly: Human thyroid membrane TSH radio-receptor assay (inhibition of 125I-bTSH binding). The following applies: for EC50: concentration inhibiting 125I-bTSH binding to human thyroid membrane by 50%, mean ± se of at least 3 assays; for Inhibition of TSH binding to human thyroid membrane (in words): human thyroid membrane RRA. How it is done: Thyroid tissue from patients with Graves' disease was obtained at surgery and promptly frozen and maintained at -70° C. Crude membrane preparations were prepared from the frozen tissue as previously described, Takahashi et al., J. Clin. Endocrinol. Metab., 47:870-876 (1978), the disclosure of which is incorporated by reference herein. Briefly, the tissue was homogenized with a Polytron homogenizer (Brinkmann Instruments,Westbury, N.Y.), and the 2000×g fraction was collected by centrifugation, washed, and resuspended in 40 mM Tris, 200 mM sucrose, pH 7.4. Membrane preparations were maintained at -70° C. until assay.
as §1, §2

Experiment [3] deals with FRTL5 cells (Rattus norvegicus, UniProt P21463). Put plainly: TSab bioassay, inhibition of TSab-stimulated cAMP generation in FRTL5 cells. The following applies: for Serum samples in which TSab-stimulated cAMP was significantly inhibited (p<0.05) / samples tested: peptide 150 μg/ml; for Inhibition of TSab-stimulated cAMP generation (in words): peptide 50 and 150 μg/ml. The class given is cell-based. How it is done: FRTL5 cells were cultured in Hams F-12 medium supplemented with 5% calf serum and a preparation containing 6 hormones (6H), including 10 mU/ml bTSH (Sigma, St. Louis, Mo.), as previously described. Ambesi-Impiombato et al., Proc. Natl. Acad. Sci. U.S.A., 77:3455 (1980), the disclosure of which is incorporated by reference herein. The cells were enzymatically removed from flasks and plated in 24 well plates containing 6H at a density of 150,000 cells per well. After 4 days, the cells were washed and the media replaced with media containing insulin only (1H). All subsequent assays were performed on cells deprived of TSH for 5-7 days.
Sequence of FRTL5 cells (P21463 22-764): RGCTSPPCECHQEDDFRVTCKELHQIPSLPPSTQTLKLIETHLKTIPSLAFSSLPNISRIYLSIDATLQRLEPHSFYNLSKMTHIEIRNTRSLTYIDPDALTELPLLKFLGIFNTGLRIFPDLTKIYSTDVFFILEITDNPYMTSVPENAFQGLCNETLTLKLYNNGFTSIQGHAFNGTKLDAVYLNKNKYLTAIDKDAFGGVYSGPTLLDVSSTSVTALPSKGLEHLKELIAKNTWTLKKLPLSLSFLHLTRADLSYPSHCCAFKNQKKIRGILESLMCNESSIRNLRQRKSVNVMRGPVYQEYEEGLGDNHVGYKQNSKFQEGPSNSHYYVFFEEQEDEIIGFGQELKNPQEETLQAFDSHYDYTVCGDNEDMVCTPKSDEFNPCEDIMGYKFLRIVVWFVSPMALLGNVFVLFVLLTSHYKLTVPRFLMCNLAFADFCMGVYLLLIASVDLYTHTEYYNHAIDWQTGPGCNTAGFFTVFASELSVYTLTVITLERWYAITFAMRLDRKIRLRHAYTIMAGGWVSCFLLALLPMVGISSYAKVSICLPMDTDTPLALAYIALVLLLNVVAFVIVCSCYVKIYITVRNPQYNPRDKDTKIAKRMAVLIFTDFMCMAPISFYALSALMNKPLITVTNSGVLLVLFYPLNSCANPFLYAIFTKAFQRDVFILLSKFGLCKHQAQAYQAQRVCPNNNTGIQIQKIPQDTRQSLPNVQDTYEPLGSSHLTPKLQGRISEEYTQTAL
Serum samples from 15 patients with elevated TSab levels were selected from the clinical chemistry laboratory. The TSab values, expressed as an index, [formula] 63:707 (1988)]ranged from 10-20 with an average of 13.8±3.3. Normal serum has an index of less than 1.3.
The bioassay described by Kasagi et al., supra, with modifications as previously noted above, was used. The immunoglobulins were precipitated from 2 ml of TSab-containing serum with 6 ml of polyethylene glycol 6,000 (Baker; Phillipsburg, N.J.), centrifuged at 3,000×g for 20 minutes, and resuspended in 4 ml of NaCl-free HBSS with 0.5 mM IBMX and 0.5% BSA. The plated cells were washed with NaCl-free HBSS and the crude immunoglobulin extract, mixed with various concentrations of β-subunit peptides, was added in duplicate to the wells (total volume 200 μl/well). The cells were incubated for 2 hours at 37° C. and 5% CO2. The samples were then removed from the cells and a portion diluted 1:50 in NaOAc buffer, pH 6.2. A 25 μl aliquot of this was then used in a cAMP RIA as described above. The basal cAMP levels were determined for each plate of cells in the absence of immunoglobulin extract and β-peptides. A maximal cAMP level was attained by stimulating the cells with the immunoglobulin extract only. The percent increase in cAMP levels above basal was calculated as: [formula] as previously described (see Morris et al., supra). The percent inhibition of cAMP production by the β-subunit peptides was calculated as described above for TSH-stimulated cells, substituting pmol cAMP crude immunoglobulin for pmol cAMP TSH.
Inhibition of TSab activity was tested by comparing the replicates of cAMP levels generated in the presence of peptide to those generated by TSab alone using Student's T test for unpaired samples. Mean inhibition by the various doses of synthetic peptide for the patient group was tested by comparison with maximum cAMP response within each patient sample using the T test for paired samples.

T2 sequence (P16473 21-764): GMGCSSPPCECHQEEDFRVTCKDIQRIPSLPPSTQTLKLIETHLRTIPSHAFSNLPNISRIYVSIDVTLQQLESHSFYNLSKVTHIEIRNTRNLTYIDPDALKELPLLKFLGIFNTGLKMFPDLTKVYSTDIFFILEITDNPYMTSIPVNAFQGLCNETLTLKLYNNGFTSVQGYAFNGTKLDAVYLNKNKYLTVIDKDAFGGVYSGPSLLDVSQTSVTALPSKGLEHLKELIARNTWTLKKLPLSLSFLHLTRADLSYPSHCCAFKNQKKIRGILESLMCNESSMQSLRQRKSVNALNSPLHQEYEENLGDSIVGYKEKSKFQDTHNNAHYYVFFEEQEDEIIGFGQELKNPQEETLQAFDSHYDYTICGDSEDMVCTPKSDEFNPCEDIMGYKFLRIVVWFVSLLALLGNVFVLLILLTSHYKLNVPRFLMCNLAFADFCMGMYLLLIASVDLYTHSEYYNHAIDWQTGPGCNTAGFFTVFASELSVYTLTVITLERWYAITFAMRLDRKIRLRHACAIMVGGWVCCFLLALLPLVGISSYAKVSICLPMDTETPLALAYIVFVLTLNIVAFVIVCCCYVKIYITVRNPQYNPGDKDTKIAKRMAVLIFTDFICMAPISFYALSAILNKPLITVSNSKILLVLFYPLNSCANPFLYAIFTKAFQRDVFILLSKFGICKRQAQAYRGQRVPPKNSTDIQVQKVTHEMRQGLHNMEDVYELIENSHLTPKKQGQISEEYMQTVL

A word on the EC50: it is the concentration giving half of the maximal effect. A high value points to a need for much substance. In experiment [1], `CC[C@H](C)[C@H](N)C(=O)N[C@@H](CCC(=O)O)C(=O)N[C@@H](CCCNC(=N)N)C(=O)N[C@@H](CCCNC(=N)N)C(=O)N[C@@H](CCC(=O)O)C(=O)N[C@@H](CS)C(=O)N[C@@H](C)C(=O)N[C@@H](Cc1ccc(O)cc1)C(=O)N[C@@H](CS)C(=O)N[C@@H](CC(C)C)C(=O)N[C@H](C(=O)N[C@H](C(=O)N[C@@H](CC(N)=O)C(=O)N[C@H](C(=O)N[C@H](C(N)=O)[C@@H](C)O)[C@@H](C)O)[C@@H](C)CC)[C@@H](C)O` [β11-25] (H-IERRECAYCLTINTT-NH2) displayed an EC50 of 186 ± 28 µM. In experiment [2], the EC50 is > 1000 µM and the “Inhibition of TSH binding to human thyroid membrane (in words)” value was “inactive”.
For the molecule `CC[C@H](C)[C@H](NC(=O)[C@@H](N)[C@@H](C)O)C(=O)N[C@@H](CC(N)=O)C(=O)N[C@H](C(=O)N[C@H](C(=O)N[C@H](C(=O)N[C@@H](CS)C(=O)N[C@@H](C)C(=O)NCC(=O)N[C@@H](Cc1ccc(O)cc1)C(=O)N[C@@H](CS)C(=O)N[C@@H](CCSC)C(=O)N[C@H](C(=O)N[C@@H](CCCNC(=N)N)C(=O)N[C@@H](CC(=O)O)C(N)=O)[C@@H](C)O)[C@@H](C)CC)[C@@H](C)O)[C@@H](C)O` [β21-35] (H-TINTTICAGYCMTRD-NH2), the EC50 in experiment [1] and in experiment [2] was > 1000 µM throughout.
With `CC[C@H](C)[C@H](NC(=O)[C@H](CC(=O)O)NC(=O)[C@H](CCCNC(=N)N)NC(=O)[C@@H](NC(=O)[C@H](CCSC)NC(=O)[C@@H](N)CS)[C@@H](C)O)C(=O)N[C@@H](CC(N)=O)C(=O)NCC(=O)N[C@@H](CCCCN)C(=O)N[C@@H](CC(C)C)C(=O)N[C@@H](Cc1ccccc1)C(=O)N[C@@H](CC(C)C)C(=O)N1CCC[C@H]1C(=O)N[C@@H](CCCCN)C(=O)N[C@@H](Cc1ccc(O)cc1)C(N)=O` [β31-45] (H-CMTRDINGKLFLPKY-NH2), the figures for the EC50 in experiment [1] and in experiment [2] were 200 ± 36 µM and 186 ± 25 µM, respectively.
The matching figures for `CC(C)C[C@H](NC(=O)[C@H](C)NC(=O)[C@H](Cc1ccc(O)cc1)NC(=O)[C@H](CCCCN)NC(=O)[C@@H]1CCCN1C(=O)[C@H](CC(C)C)NC(=O)[C@@H](N)Cc1ccccc1)C(=O)N[C@@H](CO)C(=O)N[C@@H](CCC(N)=O)C(=O)N[C@@H](CC(=O)O)C(=O)N[C@H](C(=O)N[C@@H](CS)C(=O)N[C@H](C(=O)N[C@@H](Cc1ccc(O)cc1)C(=O)N[C@@H](CCCNC(=N)N)C(N)=O)[C@@H](C)O)C(C)C` [β41-55] (H-FLPKYALSQDVCTYR-NH2): 216 ± 18 µM and 242 ± 58 µM.
The matching figures for `CC[C@H](C)[C@H](NC(=O)[C@H](Cc1ccccc1)NC(=O)[C@H](CC(=O)O)NC(=O)[C@H](CCCNC(=N)N)NC(=O)[C@H](Cc1ccc(O)cc1)NC(=O)[C@@H](NC(=O)[C@H](CS)NC(=O)[C@@H](N)C(C)C)[C@@H](C)O)C(=O)N[C@@H](Cc1ccc(O)cc1)C(=O)N[C@@H](CCCNC(=N)N)C(=O)N[C@H](C(=O)N[C@H](C(=O)N[C@@H](CCC(=O)O)C(=O)N[C@H](C(=O)N1CCC[C@H]1C(N)=O)[C@@H](C)CC)C(C)C)[C@@H](C)O` [β51-65] (H-VCTYRDFIYRTVEIP-NH2): > 1000 µM and > 1000 µM.
The matching figures for `CC[C@H](C)[C@H](NC(=O)[C@H](CCC(=O)O)NC(=O)[C@@H](NC(=O)[C@@H](N)[C@@H](C)O)C(C)C)C(=O)N1CCC[C@H]1C(=O)NCC(=O)N[C@@H](CS)C(=O)N1CCC[C@H]1C(=O)N[C@@H](CC(C)C)C(=O)N[C@@H](Cc1c[nH]cn1)C(=O)N[C@H](C(=O)N[C@@H](C)C(=O)N1CCC[C@H]1C(=O)N[C@@H](Cc1ccc(O)cc1)C(=O)N[C@@H](Cc1ccccc1)C(N)=O)C(C)C` [β61-75] (H-TVEIPGCPLHVAPYF-NH2): > 1000 µM and > 1000 µM.
Turning to `CC(C)C[C@H](NC(=O)[C@H](C)NC(=O)[C@@H](NC(=O)[C@@H]1CCCN1C(=O)[C@H](Cc1ccc(O)cc1)NC(=O)[C@H](CO)NC(=O)[C@H](Cc1ccccc1)NC(=O)[C@H](Cc1ccc(O)cc1)NC(=O)[C@@H]1CCCN1C(=O)[C@H](C)NC(=O)[C@@H](N)C(C)C)C(C)C)C(=O)N[C@@H](CO)C(=O)N[C@@H](CS)C(=O)N[C@@H](CCCCN)C(=O)N[C@@H](CS)C(N)=O` [β71-85] (H-VAPYFSYPVALSCKC-NH2; N-terminus assumed), in experiment [3], the “Serum samples in which TSab-stimulated cAMP was significantly inhibited (p<0.05) / samples tested” value was 1/5 and the “Inhibition of TSab-stimulated cAMP generation (in words)” value is “significant inhibition only at the highest concentration”. Further, the “Inhibition of TSab-stimulated cAMP generation (in words)” value in experiment [3] (listed as 71-85) is listed as “effective only at the highest dose”. Besides, in experiment [2], the “Inhibition of TSH binding to human thyroid membrane (in words)” value is listed as “inhibit binding of TSH to human thyroid membrane”.
For `CC[C@H](C)[C@H](NC(=O)[C@H](C)NC(=O)[C@H](CCC(=O)O)NC(=O)[C@H](Cc1c[nH]cn1)NC(=O)[C@@H](NC(=O)[C@H](CS)NC(=O)[C@H](CC(=O)O)NC(=O)[C@H](CO)NC(=O)[C@H](Cc1ccc(O)cc1)NC(=O)[C@@H](N)CC(=O)O)[C@@H](C)CC)C(=O)N[C@@H](CCCCN)C(=O)N[C@H](C(=O)N[C@@H](CC(N)=O)C(=O)N[C@@H](Cc1ccc(O)cc1)C(=O)N[C@@H](CS)C(N)=O)[C@@H](C)O` [β91-105] (H-DYSDCIHEAIKTNYC-NH2; N-terminus assumed), in experiment [3], the “Serum samples in which TSab-stimulated cAMP was significantly inhibited (p<0.05) / samples tested” value is recorded as 1/12 and the “Inhibition of TSab-stimulated cAMP generation (in words)” value is given as “did not inhibit TSab activity”.
